Measured values reported in patent US12594292B2, “Antiviral prodrugs, intermediate-and long-acting formulations and methods” (priority 2022, dated 2026).

Legend:
[1] = tested on: SARS-CoV-2 isolate USA-WA1/2020; test: SARS-CoV-2 infection in Vero E6 cells, qRT-PCR (Example 7); format: cell-based
PSC-human lung cells = test: Cell viability assay CellTiter-Glo, PSC-human lung cells (Example 7)
Caco-2 cells = test: Cell viability assay CellTiter-Glo, Caco-2 cells (Example 7); details: Caco-2 cells, CellTiter-Glo
[2] = Seven day oral pharmacokinetics in Syrian hamsters; format: in vivo
Protocol: ODBG-P-RVn in 0.1M sodium carbonate/bicarbonate buffer, pH 9.0, was administered to Syrian Hamsters by oral gavage every 12 hours for seven days. ODBG-P-RVn was present as the sodium salt.
FIG. 4A and FIG. 4B depict the seven day oral pharmacokinetics in Syrian hamsters. Syrian hamsters were given vehicle or ODBG-P-RVn by oral gavage every 12 hours for 7 days. Groups of 3 animals received vehicle or drug at doses of 16.9 and 13.2 mg/kg. Animals were weighed daily and monitored for clinical signs.
Analytical Methods: ODBG-P-RVn: Hamster plasma samples (10 μL) containing ODBG-P-RVn and K2EDTA as the anticoagulant were added to polypropylene tubes containing water (100 μL), internal standard solution (10 μL; 1,000 ng/mL of ODE-P-RVn in ACN:DMF (1:1, v/v)), and 10 μL of ACN:DMF (1:1, v/v). The solutions were mixed, then acidified with phosphoric acid, 85% w/v:water (1:19, v/v; 10 μL), mixed, then diluted with 200 μL of IPA, mixed, then diluted with 500 μL of water, and mixed. The samples were extracted with a Sep-Pak® tC18 96-well solid phase extraction plate (25 mg; Waters, Milford, MA). Extraction occurred under positive pressure conditions using nitrogen. Samples were washed serially with 1 mL of water:acetonitrile:formic acid (475:25:0.5, v/v/v) and 0.4 mL of water:acetonitrile:formic acid (350:150:0.5, v/v/v) before being serially eluted with 100 μL and 150 μL of water:{acetonitrile:isopropyl alcohol (1:1, v/v)}:formic acid:ammonium formate:citric acid solution, 2% w/v (15:85:0.1:0.1:0.1, v/v/v/w/v). The citric acid solution was prepared as water:citric acid monohydrate (20:0.4, v/w). After elution, 100 μL of water was added to each sample. The ODBG-P-RVn extracts were analyzed using an Agilent 1200 HPLC system (Agilent, Santa Clara, CA) coupled to an API5500 mass analyzer (SCIEX, Foster City, CA). Analytes were chromatographically separated using a Dacapo DX-C18 MF column (100×2 mm, 2.5 μm; ImtaktUSA, Portland, OR) using a mobile phase system consisting of Mobile Phase A (water:formic acid:[water:ammonium formate:citric acid (25:5:0.5, v/w/w)](1.000:1:1, v/v/v) and Mobile Phase B (acetonitrile:isopropyl alcohol:formic acid:[water:ammonium formate:citric acid (25:5:0.5, v/w/w)](800:200:1:1, v/v/v/v). The total analytical run time was 4.5 minutes. The mobile phase was nebulized using heated nitrogen in a Turbo-V source/interface set to electrospray positive ionization mode. The ionized compounds were detected using multiple reaction monitoring with transitions m/z 788.4>229 (V2043) and 668.4>467.2 (V2041). This method is applicable for measuring ODBG-P-RVn concentrations ranging from 6.25 to 3,000 ng/mL using 10.0 μL of plasma for extraction. The peak areas of ODBG-P-RVn and RVn were acquired using Analyst v. 1.6.2 (SCIEX, Framingham, MA). The calibration curve was obtained by fitting the peak area ratios of the analyte/I.S. and the standard concentrations to a linear equation with 1/x2 weighting, using Analyst. The equation of the calibration curve was then used to interpolate the concentrations of the analyte in the samples using their peak area ratios. The peak areas used for the calculations were not rounded.
The solutions were mixed and centrifuged at 16,000 g for five minutes. […] The GS-441524 extracts were analyzed using an Acquity UPLC system (Waters, Milford, MA) coupled to a G2-S QTof mass analyzer (Waters, Milford, MA). […]

HCoV-229E = format: cell-based, human Coronavirus 229E
Calu-3 cells = test: Cytotoxicity in Calu-3 cells, nuclei count or CellTiter-Glo (Example 6); details: for select compounds up to 100 μM by CellTiter-Glo
Protocol: After which an equal volume of CellTiter-Glo reagent (Cat. #G7570, Promega, Madison, WI) was added, mixed and luminescence recorded on a Veritas Microplate Luminometer (Turner BioSystems) according to manufacturer recommendations.

SRV A2 strain of RSV = test: RSV infection in Hep-2 cells, CPE reduction; format: cell-based, respiratory syncytial virus; details: RSV A2 in Hep-2 cells, 72 to 96 hours
Protocol: Methods: The SRV A2 strain of RSV was obtained from the ATCC. Ten thousand Hep-2 cells were seeded into each well of a 96-well plate in EMEM with 10% fetal bovine serum and 1% penicillin and streptomycin. Each well was inoculated with 100 TCID50 of virus. Two hours later wells were washed once with medium and serial four-fold dilutions of candidate antiviral drugs were added.

[3] = tested on: SARS-CoV-2 isolate USA-WA1/2020; test: SARS-CoV-2 infection in Vero E6 cells, qRT-PCR of Spike RNA (Example 3); format: cell-based
VERO E6 cells = test: CellTiter-Glo luminescent cell viability assay, Vero E6 (Example 3); format: cell-based
[4] = Vero E6 cells, MOI 0.01, 48 hours, mean±SD
[5] = based on the EC50 values, Vero E6

## CCCCCCCCCCCCCCCCCCOC[C@H](COP(=O)(O)OC[C@H]1O[C@@](C#N)(c2ccc3c(N)ncnn23)[C@H](O)[C@@H]1O)OCc1ccccc1 [Compound 15d, 1-O-octadecyl-2-O-benzyl-sn-glyceryl-phospho-RVn]
[1]; CC50/EC50, Vero E6 cells
  Selectivity: 699
[1]; Vero E6 cells, MOI 0.01, 48 hours
  EC50: 140 nM
[1]; Vero E6 cells, MOI 0.01, 48 hours, listed as ODBG-P-RVn, 15d
  EC90: 160 nM
PSC-human lung cells
  CC50: 61500 nM
Caco-2 cells
  CC50: 88400 nM
[2]; day 1 and 7
  ODBG-P-RVn plasma levels at 12 hours versus EC90 in all cell lines studied: above the EC90
[2]; hamster, in vivo, po
  time in which plasma levels fell by 50%: about 5 hours
[2]; oral gavage every 12 hours for seven days
  tolerability, clinical signs: well tolerated
HCoV-229E
  EC50: 100 nM
  EC90: 280 ± 13 nM
Calu-3 cells
  CC50: > 20000 nM
SRV A2 strain of RSV
  EC50: 10 nM
  EC90: 19 nM
[3]; CC50/EC50, Vero E6
  Selectivity: 240
[3]; [4]
  EC50: 190 ± 23 nM
  EC90: 560 ± 0.2 nM
[3]; [5]
  times more active than RDV: 24
  times more active than RVn: 8.9
VERO E6 cells
  CC50: 46000 nM
